Experimental data from paper PMC10786919, “Design-rules for stapled peptides with in vivo activity and their application to Mdm2/X antagonists” (Nature Communications, 2024).
Converted amounts (≈) assume the structure as drawn. Read-outs that look alike come from different tables or passages of the source. Positions of bridges follow the written chain, without caps; N, C: chain ends. Non-standard residues stand in square brackets, D forms with d. Residues, ends and D or L forms follow the SMILES beside them. R8 = C=CCCCCCC[C@@](C)(N)C(=O)O; S5 = C=CCCC[C@](C)(N)C(=O)O

Legend:
[1] = physchem
[2] = Circular dichroism (CD) helicity; format: physicochemical
Experimental: A total of 5 µL of the 10 mM stock peptide was mixed with 45 µL of 100% methanol, and dried for 2 h in the SpeedVac concentrator (Thermo Scientific). The dried peptide was reconstituted in a buffer (1 mM Hepes pH 7.4 and 5% methanol) to a concentration of 1 mM. The peptide sample was placed in a quartz cuvette with a path length of 0.2 cm. The peptide concentration was determined by the absorbance of the peptide at […]. The CD spectrum was recorded from 300 to 190 nm using the Chirascan-plus qCD machine (Applied Photophysics, Surrey, UK), at 25 °C. All experiments were done in duplicates. The CD spectrum was converted to mean residue ellipticity before deconvolution and estimation of the secondary structure components of the peptide using the CDNN software (distributed by Applied Photophysics). Measurements were taken at least twice and were reported as arithmetic means.

[3] = system: p53 responsive β-lactamase reporter in HCT116 cells; experiment: cells; format: cell-based
Outline: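 HCT116 cells stably carrying a p53-responsive β-lactamase reporter, seeded at 8000 cells/well, with 0.5% DMSO final. Reporter activity read by ToxBLAzer Dual Screen. Values are geometric means of at least three biological replicates.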

[4] = Lactate dehydrogenase (LDH) release assay; format: cell-based
Outline: (§1)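 Geometric means of at least three independent biological runs are given for LDH release measured in HCT116 cells stably expressing a p53-driven β-lactamase reporter. Plating density was 8000 cells/well; DMSO in wells was 0.5%.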

[5] = system: HCT116 cells; experiment: Lactate dehydrogenase (LDH) release assay; format: cell-based
Outline: as §1

[6] = system: Ca Ski cell line; conditions: read-out: Cell Proliferation assay EC50; p53 Mut, Ca-Ski
Outline: (§2)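 Compound dilution series (10 points, 3-fold, 10 mM top stock in DMSO) tested on overnight-plated Ca Ski cells in RPMI1640/10% FBS and on blasticidin-selected p53RE-bla HCT-116 cells in McCoy's 5A; read-out was CellTiter-Glo 2.0 luminescence after room-temperature equilibration.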

[7] = system: CellSensor p53RE-bla HCT-116 Cell Line; conditions: read-out: Cell Proliferation assay EC50; p53 WT, HCT116
Outline: as §2

[8] = system: Jump-In T-REx CHO-K1 BLA cells; experiment: cells; format: cell-based
[9] = Experimental LogD (partition coefficient)
[10] = Solubility assay (kinetic solubility, PBS pH 7); format: physicochemical
Outline: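 Next, measure peak areas of sample and standard. Finally, multiply their ratio by the standard concentration to obtain solubility (µM).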

[11] = biological target: T1, human Mdm2 1–125 (Homo sapiens, UniProt Q00987); experiment: Mdm2 binding by competitive fluorescence anisotropy assay (FP binding); conditions: read-out: FP binding assay KD
T1 construct: GST (N); His6 (internal); TEV cleavage site (ENLYFQG) (internal); made in house; host or cells: BL21 (DE3) Rosetta T1R Escherichia coli
T1 sequence (Q00987 with tags, fused parts or gaps): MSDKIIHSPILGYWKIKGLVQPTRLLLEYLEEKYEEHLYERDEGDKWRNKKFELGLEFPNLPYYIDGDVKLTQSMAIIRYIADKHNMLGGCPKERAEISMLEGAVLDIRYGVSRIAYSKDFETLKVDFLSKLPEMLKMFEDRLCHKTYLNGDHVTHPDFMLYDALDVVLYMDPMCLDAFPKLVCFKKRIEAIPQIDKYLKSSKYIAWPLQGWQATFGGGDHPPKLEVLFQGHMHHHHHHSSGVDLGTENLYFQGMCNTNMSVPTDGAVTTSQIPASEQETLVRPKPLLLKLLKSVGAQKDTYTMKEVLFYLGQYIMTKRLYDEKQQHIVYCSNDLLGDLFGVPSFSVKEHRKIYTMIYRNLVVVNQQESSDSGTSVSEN

[12] = system: cells transiently transfected with the NanoLuc-HaloTag vector; experiment: Nanoclick permeability assay; conditions: 4Hr
Outline: (§3)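 Azido-peptide permeability was read as loss of NanoBRET signal (donor 450 nm, acceptor 610 nm) after adding NanoBret618-azide at 10 μM final.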

[13] = Nanoclick permeability assay
Outline: as §3

[14] = 0% FBS 4Hr, read-out: p53 reporter assay: EC50
[15] = 0% FBS 4Hr, read-out: LDH: Cytotoxicity assay: EC50
[16] = 0% FBS 4Hr, read-out: TETCHO: Counterscreen EC50
[17] = read-out: Cell EC50 (4 hr, 0% FBS), p53 reporter assay, 4 hr, 0% FBS
[18] = read-out: Cell EC50 (16 hr, 10% FBS), p53 reporter assay, 16 hr, 10% FBS
[19] = 10% FBS 16Hr, read-out: TETCHO: Counterscreen EC50

CC(=O)N[C@@H](CCCCN=[N+]=[N-])C(=O)NCCC(=O)N[C@@H](CC(C)C)C(=O)N[C@H](C(=O)N[C@@H](Cc1ccccc1)C(=O)N[C@]1(C)CCCCCCC=CCCC[C@@](C)(C(=O)N[C@@H](CO)C(=O)N[C@@H](C)C(=O)N[C@@H](C)C(N)=O)NC(=O)[C@H](CC2CCC2)NC(=O)[C@H](CCC(N)=O)NC(=O)[C@H](Cc2c[nH]cn2)NC(=O)[C@H](Cc2c[nH]c3ccccc23)NC(=O)[C@H](Cc2ccc(O)cc2)NC(=O)[C@H](CCC(=O)O)NC1=O)[C@@H](C)O [MP-496, AZIDE-ATSP-7041 (A8H)]
EPSA [1]: 214 A^2
CD % Helicity [2]: 32.75%
EC50 [3, 14]: 1.61 µM
EC50 ([3]; 0% FBS 16Hr, read-out: p53 reporter assay: EC50): 1.67 µM
EC50 [4, 15]: > 50.6 µM
LDH: Cytotoxicity assay: % Effect ([5]; 0% FBS 4Hr): 33.4%
EC50 [6]: > 49.8 µM
EC50 [7]: 1.54 µM
TETCHO: Counterscreen % Effect ([8]; 0% FBS 4Hr): 34.53%
EC50 [8, 16]: 2.83 µM
TETCHO Counterscreen % Effect ([8]; 4 hours, 0% serum, efficacy at 50 μM relative to tetracycline control): 34.53%
EC50 ([8]; 4 hours, 0% serum, read-out: TETCHO Counterscreen EC50): 2.8 µM
off-target effects (LDH release and/or counterscreen activity) ([8]; Supplementary Table 1, 0% serum, 4 hours): none
logD ([9]; not stated, Partition Coeff LogD): 2.63
solubility kinetic ([10]; pH 7, aqueous buffer, kinetic from dmso stock, pH 7, PBS, read-out: Solubility): 20 µM (≈ 40.7 µg/mL)

CC(=O)N[C@@H](CCCCN=[N+]=[N-])C(=O)NCCC(=O)N[C@@H](CC(C)C)C(=O)N[C@H](C(=O)N[C@@H](Cc1ccccc1)C(=O)N[C@]1(C)CCCCCCn2cc(nn2)CCC[C@@](C)(C(=O)N[C@@H](CO)C(=O)N[C@@H](C)C(=O)N[C@@H](C)C(N)=O)NC(=O)[C@H](CC2CCC2)NC(=O)[C@H](CCC(N)=O)NC(=O)[C@H](C)NC(=O)[C@H](Cc2c[nH]c3ccccc23)NC(=O)[C@H](Cc2ccc(O)cc2)NC(=O)[C@H](CCC(=O)O)NC1=O)[C@@H](C)O [MP-707]
CD % Helicity [2]: 33.95%
p53 reporter assay: % Effect ([3]; 0% FBS 4Hr): 101.9%
EC50 [3, 14]: 1.6 µM
p53 reporter assay: % Effect ([3]; 10% FBS 16Hr): 63.44%
EC50 ([3]; 10% FBS 16Hr, read-out: p53 reporter assay: EC50): 13.6 µM
EC50 [3, 17]: 1.6 µM
EC50 [3, 18]: 13.6 µM
EC50 [4, 15]: > 50.7 µM
EC50 ([4]; 10% FBS 16Hr, read-out: LDH: Cytotoxicity assay: EC50): > 50.7 µM
LDH: Cytotoxicity assay: % Effect ([5]; 0% FBS 4Hr): -2.492%
LDH: Cytotoxicity assay: % Effect ([5]; 10% FBS 16Hr): 13.49%
TETCHO: Counterscreen % Effect ([8]; 0% FBS 4Hr): -1.105%
EC50 [8, 16]: > 50.4 µM
TETCHO: Counterscreen % Effect ([8]; 10% FBS 16Hr): -2.89%
EC50 [8, 19]: > 50.4 µM

CC(=O)N[C@H](C(=O)N[C@@H](CO)C(=O)NC(C)(Cc1ccccc1)C(=O)N[C@@H]1CCCCCCC=CCCC[C@@H](C(N)=O)NC(=O)C(C)(CC(C)C)NC(=O)[C@H](CC(C)C)NC(=O)[C@H](C)NC(=O)[C@H](Cc2c[nH]c3ccccc23)NC(=O)[C@H](Cc2ccc(O)cc2)NC(=O)[C@H](CCC(=O)O)NC1=O)[C@@H](C)O (some centres unmarked) [MP-792]
CD % Helicity [2]: 25.3%
EC50 [3, 14]: 12.2 µM
EC50 ([4]; LDH: Cytotoxicity assay: EC50): > 50 µM
LDH: Cytotoxicity assay: % Effect [5]: 10.77%
TETCHO: Counterscreen % Effect ([8]; 0% FBS 4Hr): 20.04%
EC50 [8, 16]: 48.9 µM
TETCHO: Counterscreen % Effect ([8]; 0% FBS 16Hr): -1.02%
Kd [11]: 0.199 µM

CC(=O)N[C@@H](CC(C)C)C(=O)N[C@H](C(=O)N[C@@H](Cc1ccccc1)C(=O)N[C@]1(C)CCCCCCC=CCCC[C@@](C)(C(=O)N[C@@H](C)C(=O)N[C@@H](C)C(=O)N[C@@H](C)C(=O)N[C@@H](C)C(=O)N[C@@H](C)C(=O)N[C@H](C)C(N)=O)NC(=O)[C@H](CC(C)C)NC(=O)[C@H](CCC(N)=O)NC(=O)[C@H](C)NC(=O)[C@H](Cc2c[nH]c3ccccc23)NC(=O)[C@H](Cc2ccc(O)cc2)NC(=O)[C@H](CCC(=O)O)NC1=O)[C@@H](C)O [ALRN-6924, Ac-LTF(R8)EYWAQL(S5)AAAAA(dA)-NH2, reference compound] (Ac-LTF[R8]EYWAQL[S5]AAAAA[dA]-NH2; staple 4-11)
CD % Helicity [2]: 51.25%
Aqueous solution helicity ([2]; circular dichroism): 51.25%
p53 reporter assay % Effect ([3]; 0% FBS 4Hr): 95.6%
EC50 ([3]; 0% FBS 4Hr, read-out: p53 reporter assay EC50): 0.141 µM
p53 reporter assay % Effect ([3]; 10% FBS 16Hr): 77.82%
EC50 ([3]; 10% FBS 16Hr, read-out: p53 reporter assay EC50): 0.323 µM
EC50 [3, 17]: 0.14 µM
EC50 [3, 18]: 0.32 µM
Nanoclick permeability assay % Effect [12]: 33.65%
cell entry EC50 [13]: > 10 µM
EC50 ([4]; 0% FBS 4Hr, read-out: LDH: Cytotoxicity assay EC50): > 50.7 µM
EC50 ([4]; 10% FBS 16Hr, read-out: LDH: Cytotoxicity assay EC50): > 50.7 µM
LDH: Cytotoxicity assay % Effect ([5]; 0% FBS 4Hr): 0.8526%
LDH: Cytotoxicity assay % Effect ([5]; 10% FBS 16Hr): 8.856%
TETCHO: Counterscreen % Effect ([8]; 0% FBS 4Hr): 4.454%
EC50 [8, 16]: > 50.4 µM
TETCHO: Counterscreen % Effect ([8]; 10% FBS 16Hr): -11.62%
EC50 [8, 19]: > 50.4 µM
Partition Coeff LogD [9]: Poorly Behaved
Solubility [10]: P.B.
Solubility ([10]; pH 7, PBS): Poorly Behaved
